Patent US8378117B2 (priority 2005, dated 2013)
Where two headings read alike, the source gives them in different places.

What was measured:
CB2 receptor [1] = biological target: T1, CB2 receptor (Homo sapiens, UniProt P34972); assay: Functional cell-based assay, CB2 receptor mediated change in CRE β-gal expression (SK-N-MC cells); conditions: for EC50: SK-N-MC cells
T1 construct: expressed in transfected cells
Source text: The CB1 and CB2 receptors are G-protein coupled receptors (GPCR), which influence cell function via the Gi-protein. These receptors modulate the activity of intracellular adenylate cyclase, which in turn produces the intracellular signal messenger cyclic-AMP (cAMP).
At baseline, or during non-ligand bound conditions, these receptors are constitutively active and tonically suppress adenylate cyclase activity. The binding of an agonist causes further receptor activation and produces additional suppression of adenylate cyclase activity. The binding of an inverse agonist inhibits the constitutive activity of the receptors and results in an increase in adenylate cyclase activity.
By monitoring intracellular adenylate cyclase activity, the ability of compounds to act as agonists or inverse agonists can be determined.
Test compounds were evaluated in SK-N-MC cells which, using standard transfection procedures, were stably transfected with human cDNA for pcDNA3-CRE β-gal and pcDNA3 CB1 receptor (human) or pcDNA3 CB2 receptor (human). By expressing CRE β-gal, the cells produced β-galactosidase in response to CRE promoter activation by cAMP. Cells expressing CRE β-gal and either the human CB1 or CB2 receptor will produce less β-galactosidase when treated with a CB1/CB2 agonist and will produce more β-galactosidase when treated with a CB1/CB2 inverse agonist.
The cells were grown in 96-well plates under standard cell culture conditions at 37° C. in a 5% CO2 atmosphere and culture media (wherein the media was supplemented with 2 mM L-glutamine, […] sodium pyruvate, 10% FBS (fetal bovine serum) and antibiotics).
For cells expressing CRE β-gal and the CB2 receptor, CB2 agonists reduced β-galactosidase activity in a dose-dependent manner and CB2 inverse agonists increase β-galactosidase activity in a dose-dependent manner.
The change in forskolin induced β-galactosidase activity was determined by setting a vehicle treated cell's activity value at 100% and expressing the β-galactosidase activity measured in a corresponding compound treated cell as a percent of the vehicle treated cell activity.
The EC50 value for functional activity for compounds tested was calculated by linear regression and was obtained from studies in which varying compound concentrations were used.

CB1 receptor [2] = biological target: T2, CB1 receptor (Homo sapiens, UniProt P21554); assay: cell-based; conditions: forskolin induced β-galactosidase activity
T2 construct: expressed in transfected cells
How it was run: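 Read-out is forskolin-driven CRE-β-gal reporter activity in stably transfected human-CB1 SK-N-MC cells, normalised to vehicle (100%); agonism lowers, inverse agonism raises signal. Values are EC50 (linear regression, multiple concentrations) or % change at one concentration.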

CB2 receptor [3] = biological target: T1, CB2 receptor; assay: Binding assay for CB2 agonists or inverse agonists (SK-N-MC membranes, [3H]-CP-55,940); conditions: for IC50: Cannabinoid CB2 Receptor Binding IC50, calculated by linear regression from percent inhibition at various test concentrations; for inhibition at 0.2 µM: read-out: CB2 receptor binding percent inhibition, test concentration 0.2 μM (footnote 2)
How it was run: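 IC50 came from percent-inhibition data over several compound concentrations, fitted by linear regression. Binding used semi-purified membranes of human CB2-transfected SK-N-MC cells, 90 min at 30 °C, pH 7.5 Tris-HCl with MgCl2, EDTA and BSA, then filtration and scintillation counting.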

CB1 receptor [4] = biological target: T2, CB1 receptor; assay: Binding assay for CB1 agonists or inverse agonists (SK-N-MC membranes, [3H]-CP-55,940); conditions: for IC50: Cannabinoid CB1 Receptor Binding IC50, calculated by linear regression from percent inhibition at various test concentrations
How it was run: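 Radioligand displacement: [3H]-CP-55,940 at […], 90 min at 30° C, pH 7.5 Tris buffer with 0.5 mg/mL fatty-acid-free BSA, using semi-purified membranes of human-CB1-transfected SK-N-MC cells. Bound counts collected on GF/C filters, 10 uM WIN 55,212 for non-specific; IC50 from percent inhibition over several concentrations.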

[5] = CB2 Receptor Functional Agonist EC50, forskolin induced β-galactosidase activity
[6] = CB1 Receptor Functional Agonist EC50, SK-N-MC cells
[7] = read-out: CB1 receptor binding percent inhibition, test concentration 0.2 μM (footnote 2)

T1 sequence (P34972 whole entry): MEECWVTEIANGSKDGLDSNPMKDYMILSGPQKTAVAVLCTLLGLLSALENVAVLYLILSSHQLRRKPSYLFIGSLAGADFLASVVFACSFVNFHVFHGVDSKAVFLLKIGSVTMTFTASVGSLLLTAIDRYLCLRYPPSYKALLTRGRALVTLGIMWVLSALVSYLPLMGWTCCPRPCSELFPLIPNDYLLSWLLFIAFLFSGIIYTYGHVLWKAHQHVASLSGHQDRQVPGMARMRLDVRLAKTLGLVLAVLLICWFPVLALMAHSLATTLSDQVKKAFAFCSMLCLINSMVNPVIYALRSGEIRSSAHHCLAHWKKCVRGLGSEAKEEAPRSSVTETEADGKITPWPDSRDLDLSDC
T2 sequence (P21554 whole entry): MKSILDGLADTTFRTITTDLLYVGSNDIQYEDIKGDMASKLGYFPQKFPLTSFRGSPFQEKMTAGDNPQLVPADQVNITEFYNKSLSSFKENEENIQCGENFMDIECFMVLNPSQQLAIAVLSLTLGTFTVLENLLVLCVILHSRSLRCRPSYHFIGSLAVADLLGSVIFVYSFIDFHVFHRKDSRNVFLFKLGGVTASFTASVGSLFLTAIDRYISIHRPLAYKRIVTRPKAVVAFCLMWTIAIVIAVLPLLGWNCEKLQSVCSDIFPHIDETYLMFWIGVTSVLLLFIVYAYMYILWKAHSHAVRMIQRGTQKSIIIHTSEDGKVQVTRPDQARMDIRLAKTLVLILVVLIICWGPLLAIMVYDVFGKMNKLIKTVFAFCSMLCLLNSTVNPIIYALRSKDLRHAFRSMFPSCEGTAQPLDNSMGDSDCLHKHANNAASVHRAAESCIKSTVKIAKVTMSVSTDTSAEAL

SMILES	EC50 (CB2 receptor [1]; [5])	EC50 (CB1 receptor [2]; [6])	CB2 receptor binding percent inhibition (CB2 receptor [3]; test concentration 0.2 μM (footnote 2))	CB2 receptor change in functional activity (CB2 receptor [1]; one compound concentration, forskolin induced β-galactosidase activity)	IC50 (CB1 receptor [4])	inhibition at 0.2 µM (CB1 receptor [4]; read-out: CB1 receptor binding percent inhibition)	IC50 (CB2 receptor [3])	inhibition at 0.2 µM (CB2 receptor [3])	inhibition at 0.2 µM (CB1 receptor [4]; [7])	EC50 (CB2 receptor [1]; forskolin induced β-galactosidase activity, read-out: CB2 Receptor Functional Agonist EC50)	EC50 (CB1 receptor [2]; SK-N-MC cells, read-out: CB1 Receptor Functional Agonist EC50)
COC[C@@H](NC(=O)c1n[nH]c2c1CCCC[C@@H]2Cc1cccc(Cl)c1)c1ccccc1 (stereo in doubt) [Cpd 251, (8R*)-(3-chloro-benzyl)-1,4,5,6,7,8-hexahydro-cycloheptapyrazole-3-carboxylic acid [(1S)-2-methoxy-1-phenyl-ethyl]-amide]	3 nM	410 nM									
COC[C@@H](NC(=O)c1n[nH]c2c1CCCC[C@H]2Cc1cccc(Cl)c1)c1ccccc1 (stereo in doubt) [Cpd 252, (8S*)-(3-chloro-benzyl)-1,4,5,6,7,8-hexahydro-cycloheptapyrazole-3-carboxylic acid [(1S)-2-methoxy-1-phenyl-ethyl]-amide]	19 nM	> 5000 nM									
COC[C@H](NC(=O)c1n[nH]c2c1CCCC[C@H]2Cc1cccc(Cl)c1)c1ccccc1 (stereo in doubt) [Cpd 253, (8S*)-(3-chloro-benzyl)-1,4,5,6,7,8-hexahydro-cycloheptapyrazole-3-carboxylic acid [(1R)-2-methoxy-1-phenyl-ethyl]-amide]	200 nM	> 5000 nM									
COC[C@H](NC(=O)c1n[nH]c2c1CCCC[C@@H]2Cc1cccc(Cl)c1)c1ccccc1 (stereo in doubt) [Cpd 254, (8R*)-(3-chloro-benzyl)-1,4,5,6,7,8-hexahydro-cycloheptapyrazole-3-carboxylic acid [(1R)-2-methoxy-1-phenyl-ethyl]-amide]	2 nM	80 nM									
C[C@@H](NC(=O)c1n[nH]c2c1CCCC/C2=C\c1ccc(Cl)cc1)c1ccccc1 [Cpd 142, (8E)-8-(4-chloro-benzylidene)-1,4,5,6,7,8-hexahydro-cycloheptapyrazole-3-carboxylic acid [(1R)-1-phenyl-ethyl]-amide]			^(2)98%	1%	10 nM	83%					
O=C(N[C@@H](CO)c1ccccc1)c1n[nH]c2c1CCCC/C2=C\c1ccc(Cl)cc1 [Cpd 234, (8E)-8-(4-chloro-benzylidene)-1,4,5,6,7,8-hexahydro-cycloheptapyrazole-3-carboxylic acid [(1R)-2-hydroxy-1-phenyl-ethyl]-amide]	5 nM	8 nM			20 nM		60 nM	93%	87%		
COC(=O)[C@H](Cc1ccc(F)cc1)NC(=O)c1n[nH]c2c1CCCC/C2=C\c1ccc(Cl)cc1 [Cpd 238, (8E)-(2S)-2-{[8-(4-chloro-benzylidene)-1,4,5,6,7,8-hexahydro-cycloheptapyrazole-3-carbonyl]-amino}-3-(4-fluoro-phenyl)-propionic acid methyl ester]	1 nM	150 nM			30 nM		10 nM	93%	85%		
O=C(N[C@@H](CO)c1ccccc1)c1n[nH]c2c1CCCC/C2=C\c1cccc(Cl)c1 [Cpd 239, (8E)-8-(3-chloro-benzylidene)-1,4,5,6,7,8-hexahydro-cycloheptapyrazole-3-carboxylic acid [(1R)-2-hydroxy-1-phenyl-ethyl]-amide]	0.6 nM	20 nM			30 nM		20 nM	91%	80%		
COC(=O)[C@H](Cc1ccc(F)cc1)NC(=O)c1n[nH]c2c1CCCC/C2=C\c1cccc(Cl)c1 [Cpd 240, (8E)-(2S)-2-{[8-(3-chloro-benzylidene)-1,4,5,6,7,8-hexahydro-cycloheptapyrazole-3-carbonyl]-amino}-3-(4-fluoro-phenyl)-propionic acid methyl ester]	13 nM	1600 nM			200 nM		40 nM	78%	35%		
COC(=O)[C@H](Cc1ccc(F)cc1)NC(=O)c1nn(C)c2c1CCCC/C2=C\c1cccc(F)c1 [Cpd 241, (8E)-(2S)-2-{[8-(3-fluoro-benzylidene)-1-methyl-1,4,5,6,7,8-hexahydro-cycloheptapyrazole-3-carbonyl]-amino}-3-(4-fluoro-phenyl)-propionic acid methyl ester]	18 nM	2800 nM			200 nM		100 nM	62%	33%		
Cn1nc(C(=O)N[C@@H](CO)c2ccccc2)c2c1/C(=C/c1cccc(F)c1)CCCC2 [Cpd 242, (8E)-8-(3-fluoro-benzylidene)-1-methyl-1,4,5,6,7,8-hexahydro-cycloheptapyrazole-3-carboxylic acid [(1R)-2-hydroxy-1-phenyl-ethyl]-amide]	11 nM	30 nM			20 nM		100 nM	50%	80%		
Cn1nc(C(=O)N[C@H](CO)Cc2ccc(O)cc2)c2c1/C(=C/c1cccc(F)c1)CCCC2 [Cpd 244, (8E)-(2S)-8-(3-fluoro-benzylidene)-1-methyl-1,4,5,6,7,8-hexahydro-cycloheptapyrazole-3-carboxylic acid [1-hydroxymethyl-2-(4-hydroxy-phenyl)-ethyl]-amide]	5 nM	600 nM			100 nM		20 nM	78%	68%		
COC(=O)[C@@H](Cc1ccc(F)cc1)NC(=O)c1n[nH]c2c1CCCC/C2=C\c1cccc(Cl)c1 [Cpd 245, (8E)-(2R)-2-{[8-(3-chloro-benzylidene)-1,4,5,6,7,8-hexahydro-cycloheptapyrazole-3-carbonyl]-amino}-3-(4-fluoro-phenyl)-propionic acid methyl ester]	1 nM	80 nM			6 nM		2 nM	93%	68%		
COC(=O)[C@@H](Cc1ccc(F)cc1)NC(=O)c1n[nH]c2c1CCCC/C2=C\c1ccc(Cl)cc1 [Cpd 247, (8E)-(2R)-2-{[8-(4-chloro-benzylidene)-1,4,5,6,7,8-hexahydro-cycloheptapyrazole-3-carbonyl]-amino}-3-(4-fluoro-phenyl)-propionic acid methyl ester]	4 nM	8 nM			2 nM		1 nM	96%	91%		
Cn1nc(C(=O)N[C@H](CCO)c2ccccc2)c2c1/C(=C/c1cccc(F)c1)CCCC2 [Cpd 249, (8E)-8-(3-fluoro-benzylidene)-1-methyl-1,4,5,6,7,8-hexahydro-cycloheptapyrazole-3-carboxylic acid [(1R)-3-hydroxy-1-phenyl-propyl]-amide]	47 nM	> 5000 nM									
O=C(N[C@H](CCO)c1ccccc1)c1n[nH]c2c1CCCC/C2=C\c1cccc(Cl)c1 [Cpd 250, (8E)-8-(3-chloro-benzylidene)-1,4,5,6,7,8-hexahydro-cycloheptapyrazole-3-carboxylic acid [(1R)-3-hydroxy-1-phenyl-propyl]-amide]										130 nM	> 5000 nM
